Reference: patent US11427547B2, “Edaravone prodrug compound and pharmaceutical use thereof in treatment or alleviation of neurodegenerative or motor neuron disease” (J2H BIOTECH INC., priority 2018, dated 2022)
In brackets after ≈: the same amount, converted by molar mass. Counter-ions that a name gives are not always drawn.

How the values were obtained:
[1] = Pharmacokinetic evaluation: edaravone in plasma after single oral administration to rats; type: in vivo, SD (Sprague-Dawley) rats; conditions: SD rats
Procedure: The pharmacokinetic test of the compounds of Examples and Reference Example was carried out as follows. That is, after a single oral administration of the test compound to SD (Sprague-Dawley) rats, the efficacy of the compound of the present invention was verified by tracking the kinetics of the edaravone released into the blood by metabolic processes and comparing it with a standard substance. Specifically, edaravone, a standard substance, was administered intravenously and orally, respectively, and the test compounds were administered orally. Then, the concentration of edaravone in blood was evaluated. The standard substance and the test compounds were each prepared in the same manner and then administered to rats at a dose of 0.1 mmol/kg, and blood was collected at a predetermined time and plasma was separated. Analysis of the drug was performed using HPLC (XBridge column Cis, Waters, mobile phase 0.1% formic acid:acetonitrile (30:70, %/%)) and MS/MS (ESI positive, MRM). Each commercial standard solution was mixed in a ratio of 9:1 with rat plasma to prepare and calibrate at concentrations of 5, 50, 100, 500, 1000 and 5000 ng/ml. In addition, the QC sample was prepared by mixing the rat plasma and the standard solution for QC at a ratio of 9:1, and at concentrations of 100, 750 and 2,500 ng/ml. In the pretreatment method, 100 μl of plasma sample was transferred to a tube for centrifugation, 10 μl of an internal standard solution and 300 μl of methanol were added, followed by mixing for about 30 seconds. The tube was centrifuged at 3,000×g (4° C.) for about 5 minutes, the supernatant was taken and transferred to an LC vial, and then injected into the instrument. In addition, the concentration of an active ingredient, that is, edaravone, in rat plasma was quantified by applying a previously validated analysis method. For pharmacokinetic parameters, WinNonlin 5.2 (Pharsight, USA) program was used, and AUC0-t, AUC0-∞, Cmax, Tmax, and t1/2 were calculated by noncompartment modeling (best fit). The pharmacokinetic parameter results were expressed as mean and standard deviation (SD), and statistically processed using the SPSS program (Statistical Package for the Social Sciences, 10.0K, USA).

[2] = cited from earlier work
[3] = in vivo; cited from earlier work
[4] = cited from earlier work; remark: listed apart in the source

Compound: Cc1cc(OC(=O)N2CCN(C(=O)[C@@H](N)C(C)C)CC2)n(-c2ccccc2)n1.Cl [Example 10, (S)-3-methyl-1-phenyl-1H-pyrazol-5-yl 4-(2-amino-3-methylbutanoyl)piperazine-1-carboxylate Hydrochloride]
- oral bioavailability (in words) [1]: excellent

Compound: Cc1cc(OC(=O)N2CCN(C(=O)[C@@H](N)C(C)C)[C@@H](C)C2)n(-c2ccccc2)n1.Cl [Example 14, (S)-3-methyl-1-phenyl-1H-pyrazol-5-yl 4-((S)-2-amino-3-methylbutanoyl)-3-methylpiperazin-1-carboxylate Hydrochloride]
- oral bioavailability (in words) [1]: excellent

Compound: Cc1cc(OC(=O)N2CCN(C(=O)[C@@H](N)C(C)(C)C)CC2)n(-c2ccccc2)n1.Cl [Example 15, (S)-3-methyl-1-phenyl-1H-pyrazol-5-yl 4-(2-amino-3,3-dimethylbutanoyl)piperazine-1-carboxylate Hydrochloride]
- oral bioavailability (in words) [1]: excellent

Compound: Cc1cc(OC(=O)N2CCN(C(=O)[C@@H](N)CCCCN)CC2)n(-c2ccccc2)n1 [Example 19, (S)-3-methyl-1-phenyl-1H-pyrazol-5-yl 4-(2,6-diaminohexanoyl)piperazine-1-carboxylate Dihydrochloride]
- oral bioavailability (in words) [1]: excellent

Compound: CC1=NN(c2ccccc2)C(=O)C1 [edaravone]
- solubility [2]: 1850 µg/mL (≈ 10.6 mM)
- oral absorption rate (Fabs) [3]: 5.23%
- permeability (Peff) [4]: 0.318 ×10⁻⁶ cm/s
